From PubChem BioAssay AID2060905 (Molecular Pharmacology Branch, DTP, NCI, 2025)
pIC50: −log10 of the molar value. Each block holds one compound with its values, some of them ahead of it.

System: 282377-053-R-J1-PDC complex spheroid viability
Assay: Anticancer human tumor 282377-053-R-J1-PDC patient-derived colon adenocarcinoma cell line growth inhibition [RAS]
Conditions: for pIC50: curve of first compound; for viability, T/C: stronger effect = lower value
Method in brief: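 Agents were tested in combination matrices in half-log decrements from a top concentration at or near clinical Cmax (10 microM if undetermined). Targets were multi-cell spheroids of tumour lines plus HUVEC and MSC stromal cells.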

[1] = second compound 0.000949 µM, first compound 0.00316 µM
[2] = second compound 0.000949 µM, first compound 0.01 µM
[3] = second compound 0.000949 µM, first compound 0.0316 µM
[4] = second compound 0.000949 µM, first compound 0.1 µM
[5] = second compound 0.000949 µM, first compound 0.316 µM
[6] = second compound 0.000949 µM, first compound 1 µM
[7] = second compound 0.003 µM, first compound 0.00316 µM
[8] = second compound 0.003 µM, first compound 0.01 µM
[9] = second compound 0.003 µM, first compound 0.0316 µM
[10] = second compound 0.003 µM, first compound 0.1 µM
[11] = second compound 0.003 µM, first compound 0.316 µM
[12] = second compound 0.003 µM, first compound 1 µM
[13] = second compound 0.00949 µM, first compound 0.00316 µM
[14] = second compound 0.00949 µM, first compound 0.01 µM
[15] = second compound 0.00949 µM, first compound 0.0316 µM
[16] = second compound 0.00949 µM, first compound 0.1 µM
[17] = second compound 0.00949 µM, first compound 0.316 µM
[18] = second compound 0.00949 µM, first compound 1 µM
[19] = second compound 0.03 µM, first compound 0.00316 µM
[20] = second compound 0.03 µM, first compound 0.01 µM
[21] = second compound 0.03 µM, first compound 0.0316 µM
[22] = second compound 0.03 µM, first compound 0.1 µM
[23] = second compound 0.03 µM, first compound 0.316 µM
[24] = second compound 0.03 µM, first compound 1 µM
[25] = second compound 0.0949 µM, first compound 0.00316 µM
[26] = second compound 0.0949 µM, first compound 0.01 µM
[27] = second compound 0.0949 µM, first compound 0.0316 µM
[28] = second compound 0.0949 µM, first compound 0.1 µM
[29] = second compound 0.0949 µM, first compound 0.316 µM
[30] = second compound 0.0949 µM, first compound 1 µM
[31] = second compound 0.3 µM, first compound 0.00316 µM
[32] = second compound 0.3 µM, first compound 0.01 µM
[33] = second compound 0.3 µM, first compound 0.0316 µM
[34] = second compound 0.3 µM, first compound 0.1 µM
[35] = second compound 0.3 µM, first compound 0.316 µM
[36] = second compound 0.3 µM, first compound 1 µM
[37] = second compound 0.000949 µM, first compound 3.16 µM
[38] = second compound 0.000949 µM, first compound 10 µM
[39] = second compound 0.003 µM, first compound 3.16 µM
[40] = second compound 0.003 µM, first compound 10 µM
[41] = second compound 0.00949 µM, first compound 3.16 µM
[42] = second compound 0.00949 µM, first compound 10 µM
[43] = second compound 0.03 µM, first compound 3.16 µM
[44] = second compound 0.03 µM, first compound 10 µM
[45] = second compound 0.0949 µM, first compound 3.16 µM
[46] = second compound 0.0949 µM, first compound 10 µM
[47] = second compound 0.3 µM, first compound 3.16 µM
[48] = second compound 0.3 µM, first compound 10 µM
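Note: spheroids exposed to agents for seven days before readout.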
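Throughout, for viability, T/C: luminescence viability as percent of DMSO vehicle control wells.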

pIC50 (second compound 0.000949 µM): < 6.00
pIC50 (second compound 0.003 µM): < 6.00
pIC50 (second compound 0.00949 µM): < 6.00
pIC50 (second compound 0.03 µM): < 6.00
pIC50 (second compound 0.0949 µM): < 6.00
pIC50 (second compound 0.3 µM): < 6.00
SMILES: C=CC(=O)Nc1cc(Nc2nccc(-c3cn(C)c4ccccc34)n2)c(OC)cc1N(C)CCN(C)C + CCn1c(-c2cc(N3CCN(C)CC3)cnc2C(C)OC)c2c3cc(ccc31)-c1csc(n1)CC(NC(=O)C1CC1C)C(=O)N1CCCC(N1)C(=O)OCC(C)(C)C2
viability, T/C [1]: 96.5%
viability, T/C [2]: 109%
viability, T/C [3]: 78%
viability, T/C [4]: 86.9%
viability, T/C [5]: 83.4%
viability, T/C [6]: 91.6%
viability, T/C [7]: 87.3%
viability, T/C [8]: 106%
viability, T/C [9]: 89.9%
viability, T/C [10]: 80.8%
viability, T/C [11]: 83.6%
viability, T/C [12]: 75.8%
viability, T/C [13]: 102%
viability, T/C [14]: 90.8%
viability, T/C [15]: 97.5%
viability, T/C [16]: 84.8%
viability, T/C [17]: 73.8%
viability, T/C [18]: 80.3%
viability, T/C [19]: 83%
viability, T/C [20]: 97.4%
viability, T/C [21]: 116%
viability, T/C [22]: 89.9%
viability, T/C [23]: 85.6%
viability, T/C [24]: 94.4%
viability, T/C [25]: 95%
viability, T/C [26]: 92.5%
viability, T/C [27]: 97.8%
viability, T/C [28]: 78.6%
viability, T/C [29]: 112%
viability, T/C [30]: 91.7%
viability, T/C [31]: 84.9%
viability, T/C [32]: 97.2%
viability, T/C [33]: 92%
viability, T/C [34]: 97.5%
viability, T/C [35]: 98.6%
viability, T/C [36]: 138%

pIC50 (second compound 0.000949 µM): < 5.00
pIC50 (second compound 0.003 µM): < 5.00
pIC50 (second compound 0.00949 µM): < 5.00
pIC50 (second compound 0.03 µM): < 5.00
pIC50 (second compound 0.0949 µM): < 5.00
pIC50 (second compound 0.3 µM): < 5.00
SMILES: CC(C)NCC(C(=O)N1CCN(c2ncnc3c2C(C)CC3O)CC1)c1ccc(Cl)cc1 (stereo not drawn) + CCn1c(-c2cc(N3CCN(C)CC3)cnc2C(C)OC)c2c3cc(ccc31)-c1csc(n1)CC(NC(=O)C1CC1C)C(=O)N1CCCC(N1)C(=O)OCC(C)(C)C2
viability, T/C [3]: 96.1%
viability, T/C [4]: 93.7%
viability, T/C [5]: 80.8%
viability, T/C [6]: 79.4%
viability, T/C [37]: 78%
viability, T/C [38]: 76.5%
viability, T/C [9]: 90.7%
viability, T/C [10]: 106%
viability, T/C [11]: 88.2%
viability, T/C [12]: 71.8%
viability, T/C [39]: 76.2%
viability, T/C [40]: 68.3%
viability, T/C [15]: 93%
viability, T/C [16]: 119%
viability, T/C [17]: 79.4%
viability, T/C [18]: 68%
viability, T/C [41]: 70.7%
viability, T/C [42]: 69.1%
viability, T/C [21]: 111%
viability, T/C [22]: 83.1%
viability, T/C [23]: 82.5%
viability, T/C [24]: 70%
viability, T/C [43]: 65.3%
viability, T/C [44]: 64.4%
viability, T/C [27]: 95.3%
viability, T/C [28]: 87.6%
viability, T/C [29]: 93.8%
viability, T/C [30]: 62.8%
viability, T/C [45]: 63.8%
viability, T/C [46]: 65.4%
viability, T/C [33]: 100%
viability, T/C [34]: 86.6%
viability, T/C [35]: 109%
viability, T/C [36]: 69.1%
viability, T/C [47]: 64.6%
viability, T/C [48]: 69.9%

pIC50 (second compound 0.000949 µM): < 5.00
pIC50 (second compound 0.003 µM): < 5.00
pIC50 (second compound 0.00949 µM): < 5.00
pIC50 (second compound 0.03 µM): < 5.00
pIC50 (second compound 0.0949 µM): < 5.00
pIC50 (second compound 0.3 µM): < 5.00
SMILES: CC(Nc1ccc2c(c1)OCCn1cc(N3C(=O)OCC3C(F)F)nc1-2)C(N)=O (stereo not drawn) + CCn1c(-c2cc(N3CCN(C)CC3)cnc2C(C)OC)c2c3cc(ccc31)-c1csc(n1)CC(NC(=O)C1CC1C)C(=O)N1CCCC(N1)C(=O)OCC(C)(C)C2
viability, T/C [3]: 95.5%
viability, T/C [4]: 104%
viability, T/C [5]: 81.1%
viability, T/C [6]: 80%
viability, T/C [37]: 74.3%
viability, T/C [38]: 77.4%
viability, T/C [9]: 96.5%
viability, T/C [10]: 104%
viability, T/C [11]: 95.2%
viability, T/C [12]: 81.8%
viability, T/C [39]: 75.3%
viability, T/C [40]: 70.6%
viability, T/C [15]: 103%
viability, T/C [16]: 83.4%
viability, T/C [17]: 109%
viability, T/C [18]: 96.5%
viability, T/C [41]: 84.5%
viability, T/C [42]: 68.3%
viability, T/C [21]: 86.6%
viability, T/C [22]: 83.2%
viability, T/C [23]: 84.1%
viability, T/C [24]: 80.3%
viability, T/C [43]: 82.2%
viability, T/C [44]: 70.7%
viability, T/C [27]: 90.6%
viability, T/C [28]: 82.9%
viability, T/C [29]: 93.7%
viability, T/C [30]: 95.3%
viability, T/C [45]: 82.9%
viability, T/C [46]: 98.7%
viability, T/C [33]: 106%
viability, T/C [34]: 78.9%
viability, T/C [35]: 94.3%
viability, T/C [36]: 104%
viability, T/C [47]: 84.3%
viability, T/C [48]: 87.9%

pIC50 (second compound 0.000949 µM): 7.42
pIC50 (second compound 0.003 µM): 7.25
pIC50 (second compound 0.00949 µM): 7.42
pIC50 (second compound 0.03 µM): 7.92
pIC50 (second compound 0.0949 µM): 7.75
pIC50 (second compound 0.3 µM): 7.84
SMILES: O=C(c1ccc(F)c(F)c1Nc1ccc(I)cc1F)N1CC(O)([C@@H]2CCCCN2)C1 + CCn1c(-c2cc(N3CCN(C)CC3)cnc2C(C)OC)c2c3cc(ccc31)-c1csc(n1)CC(NC(=O)C1CC1C)C(=O)N1CCCC(N1)C(=O)OCC(C)(C)C2
viability, T/C [1]: 68.3%
viability, T/C [2]: 65.3%
viability, T/C [3]: 49.6%
viability, T/C [4]: 39.9%
viability, T/C [5]: 27.2%
viability, T/C [6]: 16.9%
viability, T/C [7]: 70.3%
viability, T/C [8]: 61.9%
viability, T/C [9]: 69.6%
viability, T/C [10]: 33.2%
viability, T/C [11]: 26.1%
viability, T/C [12]: 14.6%
viability, T/C [13]: 68%
viability, T/C [14]: 67.4%
viability, T/C [15]: 51.7%
viability, T/C [16]: 34%
viability, T/C [17]: 22.1%
viability, T/C [18]: 16%
viability, T/C [19]: 77.4%
viability, T/C [20]: 43%
viability, T/C [21]: 45.9%
viability, T/C [22]: 26.7%
viability, T/C [23]: 20.6%
viability, T/C [24]: 15.4%
viability, T/C [25]: 75.9%
viability, T/C [26]: 68%
viability, T/C [27]: 32%
viability, T/C [28]: 23.8%
viability, T/C [29]: 18.1%
viability, T/C [30]: 13.8%
viability, T/C [31]: 67.8%
viability, T/C [32]: 58.6%
viability, T/C [33]: 31.1%
viability, T/C [34]: 21.5%
viability, T/C [35]: 18.8%
viability, T/C [36]: 15.8%
